Here are results for 22 compounds from patent US20180148418A1, “AMIDO-SUBSTITUTED CYCLOHEXANE DERIVATIVES” (Bayer Pharma Aktiengesellschaft, priority 2015, published 2018).

This assay concerns the target T1, TNKS1 (Homo sapiens, UniProt O95271).
T1 construct: purchased BPS Bioscience, San Diego, USA 80579 (TNKS1 Histone Ribosylation Assay Kit)
T1 sequence (O95271 1-1327): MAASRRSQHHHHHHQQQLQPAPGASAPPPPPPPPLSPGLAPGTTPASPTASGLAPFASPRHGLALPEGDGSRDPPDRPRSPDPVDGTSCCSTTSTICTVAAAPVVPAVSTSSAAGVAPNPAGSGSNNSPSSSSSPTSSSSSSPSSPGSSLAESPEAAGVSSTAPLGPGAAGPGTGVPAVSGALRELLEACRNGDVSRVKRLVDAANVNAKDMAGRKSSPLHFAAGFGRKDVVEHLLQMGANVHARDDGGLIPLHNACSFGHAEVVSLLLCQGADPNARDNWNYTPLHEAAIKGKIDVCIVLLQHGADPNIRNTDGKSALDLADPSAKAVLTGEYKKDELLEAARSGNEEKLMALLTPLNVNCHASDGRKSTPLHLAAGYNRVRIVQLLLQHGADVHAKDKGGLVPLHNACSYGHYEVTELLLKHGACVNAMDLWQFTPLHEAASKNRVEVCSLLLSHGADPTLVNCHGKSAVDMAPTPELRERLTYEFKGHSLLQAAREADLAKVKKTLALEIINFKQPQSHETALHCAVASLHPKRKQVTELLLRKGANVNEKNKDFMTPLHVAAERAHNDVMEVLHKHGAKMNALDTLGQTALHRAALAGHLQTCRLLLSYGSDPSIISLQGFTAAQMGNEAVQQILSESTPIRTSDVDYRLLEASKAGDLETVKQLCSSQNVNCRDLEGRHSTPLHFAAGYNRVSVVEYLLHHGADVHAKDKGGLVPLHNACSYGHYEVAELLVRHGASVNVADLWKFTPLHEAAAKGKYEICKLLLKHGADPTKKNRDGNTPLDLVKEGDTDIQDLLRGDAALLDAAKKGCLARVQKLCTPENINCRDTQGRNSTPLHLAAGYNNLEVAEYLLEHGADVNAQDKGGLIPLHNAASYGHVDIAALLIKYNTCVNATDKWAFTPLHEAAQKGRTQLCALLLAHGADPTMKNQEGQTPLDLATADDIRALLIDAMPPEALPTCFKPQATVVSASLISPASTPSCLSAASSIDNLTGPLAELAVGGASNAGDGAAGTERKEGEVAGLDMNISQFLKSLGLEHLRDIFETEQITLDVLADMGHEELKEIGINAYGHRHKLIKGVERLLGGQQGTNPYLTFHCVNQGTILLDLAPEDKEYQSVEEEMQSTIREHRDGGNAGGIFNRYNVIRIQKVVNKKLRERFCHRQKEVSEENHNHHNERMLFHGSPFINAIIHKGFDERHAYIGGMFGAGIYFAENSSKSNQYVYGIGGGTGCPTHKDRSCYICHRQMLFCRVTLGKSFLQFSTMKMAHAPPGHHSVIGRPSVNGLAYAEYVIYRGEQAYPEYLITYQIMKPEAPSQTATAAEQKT
Description: TNKS1 Assay B (auto-parsylation, [3H]-NAD+ SPA). Type of assay: biochemical. Particulars: 6 nM TNKS1, auto-parsylation, over night at room temperature. The procedure: The potency of selected compounds according to the invention was assessed applying a modified in vitro inhibition assay. Here, the TNKS1 catalyzed NAD^+-dependent ribosylation of the enzyme itself (auto-parsylation) was detected using [^3H]-NAD^+ as substrate and applying the scintillation proximity assay (SPA) method to detect tritium-labeled, parsylated TNKS1. The intensity of the readout signal is proportional to the incorporated [^3H]-NAD^+. Inhibition of TNKS1 leads to a decreased incorporation of [^3H]-NAD^+ and consequently to a lower readout signal intensity. The concentration of a test compound which inhibits the enzyme activity by 50% (corresponds to half of the normed readout signal intensity) is reported as IC50.
Protocol Auto-Parsylation Assay
The assay was conducted in a 96 well MTP format with the identical TNKS1 enzyme sample and NAD^+ sample as in the histone ribosylation assay with the following modifications: TNKS1 enzyme sample was diluted with a modified assay buffer (50 mM MES pH 7.0, 1 mM DTT, 0.01% Triton X-100) to a final concentration of 6 nM TNKS1 and 10×NAD^+ solution was diluted with the modified assay buffer (s. above) to a final 0.445×NAD^+ solution doped with 100 Bq/μl [^3H]-NAD^+[Catalog #NET443H050UC, Perkin Elmer, Waltham, Mass., USA]. Substrate solution (10 μl) was incubated with different test compound concentrations (2.5 ul in 10% DMSO in modified assay buffer) or control (2.5 ul 10% DMSO in modified assay buffer only) and enzyme (10 μl) over night at room temperature. Incorporated tritium was measured after addition of 50 μl SPA beads (1 mg/ml) [Catalog #RPNQ0095 20 mg/ml, Perkin Elmer, Waltham, Mass., USA; diluted 1:10 with Dulbecco's phosphate buffered saline, PBS Catalog #D8537, Sigma-Aldrich, Steinheim, Germany] and detection of the photon emission with a beta count plate reader [Wallac MicroBeta®, Perkin Elmer, Waltham, Mass., USA].

The IC50 is the midpoint of a concentration-inhibition curve. With `COC(C)(C)CNC(=O)c1nc[nH]c1C(=O)N[C@H]1CC[C@H](C(=O)Nc2cc(C)c(F)cc2Cl)CC1` [Example 101, N^5-{trans-4-[(2-chloro-4-fluoro-5-methylphenyl)carbamoyl]cyclohexyl}-N^4-(2-methoxy-2-methylpropyl)-1H-imidazole-4,5-dicarboxamide], 160 nM corresponded to half-maximal inhibition (IC50).

In turn, `Cc1cc(C)n2ncc(C(=O)N[C@H]3CC[C@H](C(=O)Nc4ccncc4Cl)CC3)c2n1` [Example 102, N-{trans-4-[(3-chloropyridin-4-yl)carbamoyl]cyclohexyl}-5,7-dimethylpyrazolo[1,5-a]pyrimidine-3-carboxamide] showed an IC50 of 330 nM.

`O=C(N[C@H]1CC[C@H](C(=O)Nc2ccncc2Cl)CC1)c1cnc2cccnn12` [Example 103, N-{trans-4-[(3-chloropyridin-4-yl)carbamoyl]cyclohexyl}imidazo[1,2-b]pyridazine-3-carboxamide] yielded an IC50 of 520 nM.

For the compound `Cc1cnc2c(C(=O)N[C@H]3CC[C@H](C(=O)Nc4ccncc4Cl)CC3)cnn2c1` [Example 104, N-{trans-4-[(3-chloropyridin-4-yl)carbamoyl]cyclohexyl}-6-methyl pyrazolo[1,5-a]pyrimidine-3-carboxamide], the IC50 stood at 63 nM.

The compound `O=C(N[C@H]1CC[C@H](C(=O)Nc2ccncc2Cl)CC1)c1cnn2cccnc12` [Example 105, N-{trans-4-[(3-chloropyridin-4-yl)carbamoyl]cyclohexyl}pyrazolo[1,5-a]pyrimidine-3-carboxamide] had an IC50 of 190 nM.

On to `CCOC(=O)c1cnc2c(C(=O)N[C@H]3CC[C@H](C(=O)Nc4ccc(F)cc4Cl)CC3)cnn2c1` [Example 106, ethyl 3-({trans-4-[(2-chloro-4-fluorophenyl)carbamoyl]cyclohexyl}carbamoyl)pyrazolo[1,5-a]pyrimidine-6-carboxylate], for which 49 nM corresponded to half-maximal inhibition (IC50).

For `O=C(N[C@H]1CC[C@H](C(=O)Nc2ccc(F)cc2Cl)CC1)c1cnn2ccc(N3CCOCC3)nc12` [Example 107, N-{trans-4-[(2-chloro-4-fluorophenyl)carbamoyl]cyclohexyl}-5-(morpholin-4-yl)pyrazolo[1,5-a]pyrimidine-3-carboxamide], the 50% inhibitory concentration (IC50) was 120 nM.

In turn, `O=C(N[C@H]1CC[C@H](C(=O)Nc2ccc(F)cc2Cl)CC1)c1cnn2ccc(N3CCCC3)nc12` [Example 108] gave an IC50 of 52 nM.

For `CN1CCN(c2ccn3ncc(C(=O)N[C@H]4CC[C@H](C(=O)Nc5ccc(F)cc5Cl)CC4)c3n2)CC1` [Example 109], the IC50 came to 62 nM.

Compound `COCc1cc(C)n2ncc(C(=O)N[C@H]3CC[C@H](C(=O)Nc4ccc(F)cc4Cl)CC3)c2n1` [Example 110, N-{trans-4-[(2-chloro-4-fluorophenyl)carbamoyl]cyclohexyl}-5-(methoxymethyl)-7-methylpyrazolo[1,5-a]pyrimidine-3-carboxamide] returned an IC50 of 310 nM.

For the compound `COCc1cc(C)nc2c(C(=O)N[C@H]3CC[C@H](C(=O)Nc4ccc(F)cc4Cl)CC3)cnn12` [Example 111, N-{trans-4-[(2-chloro-4-fluorophenyl)carbamoyl]cyclohexyl}-7-(methoxymethyl)-5-methylpyrazolo[1,5-a]pyrimidine-3-carboxamide], the IC50 came to 520 nM.

`COCc1cc(C)n2ncc(C(=O)N[C@H]3CC[C@H](C(=O)Nc4c(F)cc(F)cc4Cl)CC3)c2n1` [Example 112, N-{trans-4-[(2-chloro-4,6-difluorophenyl)carbamoyl]cyclohexyl}-5-(methoxymethyl)-7-methylpyrazolo[1,5-a]pyrimidine-3-carboxamide] registered a half-maximal inhibitory concentration (IC50) of 150 nM.

For the compound `Cc1nc2c(C(=O)N[C@H]3CC[C@H](C(=O)Nc4ccc(F)cc4Cl)CC3)cnn2c2c1CCC2` [Example 113, N-{trans-4-[(2-chloro-4-fluorophenyl)carbamoyl]cyclohexyl}-5-methyl-7,8-dihydro-6H-cyclopenta[e]pyrazolo[1,5-a]pyrimidine-3-carboxamide], the IC50 is 110 nM.

Regarding `CC(O)CNc1ccc2ncc(C(=O)N[C@H]3CC[C@H](C(=O)Nc4ccc(F)cc4Cl)CC3)n2n1` (stereo partly drawn) [Example 114, N-{trans-4-[(2-chloro-4-fluorophenyl)carbamoyl]cyclohexyl}-6-[(2-hydroxypropyl)amino]imidazo[1,2-b]pyridazine-3-carboxamide], half-maximal inhibition (IC50) was put at 860 nM.

On to `CNC(=O)c1[nH]cnc1C(=O)NC12CCC(C(=O)Nc3ccc(F)cc3Cl)(CC1)CC2` [Example 115, N^4-{4-[(2-chloro-4-fluorophenyl)carbamoyl]bicyclo[2.2.2]oct-1-yl}-N^5-methyl-1H-imidazole-4,5-dicarboxamide], for which half-maximal inhibition (IC50) was put at 160 nM.

In turn, `CNC(=O)c1[nH]cnc1C(=O)NC12CCC(C(=O)Nc3c(F)cc(F)cc3Cl)(CC1)CC2` [Example 116, N^4-{4-[(2-chloro-4,6-difluorophenyl)carbamoyl]bicyclo[2.2.2]oct-1-yl}-N^5-methyl-1H-imidazole-4,5-dicarboxamide] had a 50% inhibitory concentration (IC50) of 580 nM.

On to `O=C(NC12CCC(C(=O)Nc3ccc(F)cc3Cl)(CC1)CC2)c1cnn2cccnc12` [Example 117, N-{4-[(2-chloro-4-fluorophenyl)carbamoyl]bicyclo[2.2.2]oct-1-yl}pyrazolo[1,5-a]pyrimidine-3-carboxamide], for which half-maximal inhibition (IC50) required 340 nM.

On to `Cc1cc(NC(=O)C23CCC(NC(=O)c4cnn5cccnc45)(CC2)CC3)c(Cl)cc1F` [Example 118, N-{4-[(2-chloro-4-fluoro-5-methylphenyl)carbamoyl]bicyclo[2.2.2]oct-1-yl}pyrazolo[1,5-a]pyrimidine-3-carboxamide], for which it took 89 nM to reach half-maximal inhibition (IC50).

As to `O=C(NC12CCC(C(=O)Nc3c(F)cc(F)cc3Cl)(CC1)CC2)c1cnn2cccnc12` [Example 119, N-{4-[(2-chloro-4,6-difluorophenyl)carbamoyl]bicyclo[2.2.2]oct-1-yl}pyrazolo[1,5-a]pyrimidine-3-carboxamide], the IC50 amounted to 560 nM.

The compound `O=C(NC12CCC(C(=O)Nc3cnccc3Cl)(CC1)CC2)c1cnn2cccnc12` [Example 120, N-{4-[(4-chloropyridin-3-yl)carbamoyl]bicyclo[2.2.2]oct-1-yl}pyrazolo[1,5-a]pyrimidine-3-carboxamide] registered a concentration for half-maximal inhibition (IC50) of 210 nM.

`O=C(NC12CCC(C(=O)Nc3ccc(F)cc3Cl)(CC1)CC2)c1cnc2cccnn12` [Example 121, N-{4-[(2-chloro-4-fluorophenyl)carbamoyl]bicyclo[2.2.2]oct-1-yl}imidazo[1,2-b]pyridazine-3-carboxamide] registered an IC50 of 400 nM.

The compound `Cc1cc(NC(=O)C23CCC(NC(=O)c4cnc5cccnn45)(CC2)CC3)c(Cl)cc1F` [Example 122, N-{4-[(2-chloro-4-fluoro-5-methylphenyl)carbamoyl]bicyclo[2.2.2]oct-1-yl}imidazo[1,2-b]pyridazine-3-carboxamide] registered an IC50 of 240 nM.
